Legend:
[1] = tested on: purple nutsedge; experiment: Test B pre/postemergence purple nutsedge; assay type: in vivo, Cyperus rotundus
Method in brief: (§1)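 Herbicidal effect was estimated by eye on a ten-point control scale after plants spent twelve to sixteen days in a greenhouse following soil or foliar treatment. Foliar sprays targeted plants at one to four leaves; all doses were formulated in a non-phytotoxic solvent with surfactant.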

[2] = tested on: bamyardgrass; experiment: Test B flood test barnyardgrass; assay type: in vivo, Echinochloa crus-galli
Method in brief: (§2)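 Flood test on plants grown to the 2-leaf stage; treated plants kept in greenhouse twelve to sixteen days, then visually rated against controls on a 0 (no effect) to 10 (complete control) scale.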

[3] = tested on: soybean; experiment: Test B pre/postemergence soybean; assay type: in vivo, Glycine max
Method in brief: as §1

[4] = tested on: rice; experiment: Test B flood test rice; assay type: in vivo, Oryza sativa
Method in brief: as §2

[5] = tested on: duck salad; experiment: Test B flood test duck salad; assay type: in vivo, Heteranthera limosa
Method in brief: as §2

[6] = tested on: wheat; experiment: Test B pre/postemergence wheat; assay type: in vivo, Triticum aestivum
Method in brief: as §1

[7] = tested on: wild oat; experiment: Test B pre/postemergence wild oat; assay type: in vivo, Avena fatua
Method in brief: as §1

[8] = tested on: velvetleaf; experiment: Test B pre/postemergence velvetleaf; assay type: in vivo, Abutilon theophrasti
Method in brief: as §1

[9] = tested on: sugar beet; experiment: Test B pre/postemergence sugar beet; assay type: in vivo, Beta vulgaris
Method in brief: as §1

[10] = tested on: pigweed; experiment: Test B pre/postemergence pigweed; assay type: in vivo, Amaranthus retroflexus
Method in brief: as §1

[11] = tested on: giant foxtail; experiment: Test B pre/postemergence giant foxtail; assay type: in vivo, Setaria faberii
Method in brief: as §1

[12] = tested on: cocklebur; experiment: Test B pre/postemergence cocklebur; assay type: in vivo, Xanthium strumarium
Method in brief: as §1

[13] = tested on: corn; experiment: Test B pre/postemergence corn; assay type: in vivo, Zea mays
Method in brief: as §1

[14] = tested on: crabgrass; experiment: Test B pre/postemergence crabgrass; assay type: in vivo, Digitaria sanguinalis
Method in brief: as §1

[15] = tested on: morningglory; experiment: Test B pre/postemergence morningglory; assay type: in vivo, Ipomoea hederacea
Method in brief: as §1

[16] = tested on: rape; experiment: Test B pre/postemergence rape; assay type: in vivo, Brassica napus
Method in brief: as §1

[17] = Postemergence, Rate 62 g/ha, scale 0 to 10, 0 is no effect, 10 is complete control
[18] = Postemergence, Rate 250 g/ha, scale 0 to 10, 0 no effect, 10 complete control
[19] = Preemergence, Rate 62 g/ha, scale 0 to 10, 0 is no effect, 10 is complete control
[20] = Preemergence, Rate 125 g/ha, scale 0 to 10 (0 no effect, 10 complete control)
[21] = Preemergence, Rate 250 g/ha, scale of 0 to 10 where 0 is no effect and 10 is complete control
[22] = Preemergence, Rate 500 g/ha, scale 0 (no effect) to 10 (complete control)
[23] = Rate 125 g/ha, Postemergence, scale 0 to 10, 0 no effect, 10 complete control
[24] = Rate 500 g/ha, Postemergence, 0 to 10 scale (0 no effect, 10 complete control)
[25] = Rate 125 g/ha, Postemergence section (flood test species), scale 0 to 10, 0 no effect, 10 complete control
[26] = Rate 125 g/ha, Pre-emergence, flood test species, scale 0 to 10 where 0 is no effect and 10 is complete control
[27] = Rate 250 g/ha, headed Pre-emergence (flood test species), scale 0 to 10 (0 no effect, 10 complete control)
[28] = Rate 500 g/ha, Postemergence section of Table B, 0 to 10 scale (0 no effect, 10 complete control)
[29] = Rate 500 g/ha, headed Pre-emergence (flood test species), scale 0 to 10 (0 no effect, 10 complete control)
[30] = Rate 1000 g/ha, Pre-emergence (as headed), scale 0 to 10
[31] = flood test, listed under Postemergence, Rate 250 g/ha, scale 0 to 10, 0 no effect, 10 complete control

COc1ccc(-n2c(=O)on(C(=O)N(c3ccc(F)cc3)C(C)C)c2=O)c(C)c1 [Compound 35]
Nutsedge plant response rating [1, 17]: 0 | Nutsedge plant response rating [1, 18]: 0 | Plant response rating, Nutsedge [1, 19]: 0 | Plant response rating, Nutsedge [1, 20]: 0 | Plant response rating, Nutsedge [1, 21]: 0 | Nutsedge plant response rating [1, 22]: 0 | Nutsedge plant response rating [1, 23]: 0 | Nutsedge plant response rating [1, 24]: 0 | Barnyardgrass plant response rating [2, 17]: 0 | Barnyardgrass plant response rating [2, 25]: 0 | Barnyardgrass plant response rating [2, 26]: 0 | Barnyardgrass plant response rating [2, 27]: 0 | Barnyardgrass plant response rating [2, 28]: 0 | Plant response rating, Barnyardgrass [2, 29]: 0 | Barnyardgrass plant response rating [2, 30]: 0 | Barnyardgrass plant response rating [2, 31]: 0 | Soybean plant response rating [3, 17]: 1 | Soybean plant response rating [3, 18]: 1 | Plant response rating, Soybean [3, 19]: 0 | Plant response rating, Soybean [3, 20]: 0 | Plant response rating, Soybean [3, 21]: 0 | Soybean plant response rating [3, 22]: 0 | Soybean plant response rating [3, 23]: 1 | Rice plant response rating [4, 17]: 0 | Rice plant response rating [4, 25]: 0 | Rice plant response rating [4, 26]: 0 | Rice plant response rating [4, 27]: 0 | Rice plant response rating [4, 28]: 0 | Plant response rating, Rice [4, 29]: 0 | Rice plant response rating [4, 30]: 0 | Rice plant response rating [4, 31]: 0 | Ducksalad plant response rating [5, 17]: 0 | Ducksalad plant response rating [5, 25]: 0 | Ducksalad plant response rating [5, 26]: 0 | Ducksalad plant response rating [5, 27]: 0 | Ducksalad plant response rating [5, 28]: 0 | Plant response rating, Ducksalad [5, 29]: 0 | Ducksalad plant response rating [5, 30]: 0 | Ducksalad plant response rating [5, 31]: 0 | Wheat plant response rating [6, 17]: 0 | Wheat plant response rating [6, 18]: 0 | Plant response rating, Wheat [6, 19]: 0 | Plant response rating, Wheat [6, 20]: 0 | Plant response rating, Wheat [6, 21]: 0 | Wheat plant response rating [6, 22]: 0 | Wheat plant response rating [6, 23]: 0 | Wild oats plant response rating [7, 17]: 0 | Wild oats plant response rating [7, 18]: 0 | Plant response rating, Wild oats [7, 20]: 0 | Plant response rating, Wild oats [7, 21]: 2 | Wild oats plant response rating [7, 22]: 6 | Wild oats plant response rating [7, 23]: 0 | Velvetleaf plant response rating [8, 17]: 0 | Velvetleaf plant response rating [8, 18]: 0 | Plant response rating, Velvetleaf [8, 19]: 0 | Plant response rating, Velvetleaf [8, 20]: 0 | Plant response rating, Velvetleaf [8, 21]: 0 | Velvetleaf plant response rating [8, 22]: 0 | Velvetleaf plant response rating [8, 23]: 0 | Sugarbeets plant response rating [9, 17]: 0 | Plant response rating, Sugarbeets [9, 19]: 0 | Plant response rating, Sugarbeets [9, 20]: 0 | Plant response rating, Sugarbeets [9, 21]: 0 | Sugarbeets plant response rating [9, 22]: 0 | Sugarbeets plant response rating [9, 23]: 3 | Redroot pigweed plant response rating [10, 17]: 0 | Redroot pigweed plant response rating [10, 18]: 9 | Plant response rating, Redroot pigweed [10, 19]: 0 | Plant response rating, Redroot pigweed [10, 20]: 0 | Plant response rating, Redroot pigweed [10, 21]: 0 | Redroot pigweed plant response rating [10, 22]: 0 | Redroot pigweed plant response rating [10, 23]: 7 | Redroot pigweed plant response rating [10, 24]: 9 | Giant foxtail plant response rating [11, 17]: 0 | Giant foxtail plant response rating [11, 18]: 1 | Plant response rating, Giant foxtail [11, 19]: 3 | Plant response rating, Giant foxtail [11, 20]: 7 | Plant response rating, Giant foxtail [11, 21]: 10 | Giant foxtail plant response rating [11, 22]: 10 | Giant foxtail plant response rating [11, 23]: 0 | Giant foxtail plant response rating [11, 24]: 7 | Cocklebur plant response rating [12, 17]: 0 | Cocklebur plant response rating [12, 18]: 4 | Plant response rating, Cocklebur [12, 19]: 0 | Plant response rating, Cocklebur [12, 20]: 0 | Plant response rating, Cocklebur [12, 21]: 0 | Cocklebur plant response rating [12, 22]: 0 | Cocklebur plant response rating [12, 23]: 2 | Cocklebur plant response rating [12, 24]: 5 | Corn plant response rating [13, 17]: 0 | Corn plant response rating [13, 18]: 0 | Plant response rating, Corn [13, 19]: 0 | Plant response rating, Corn [13, 20]: 0 | Plant response rating, Corn [13, 21]: 0 | Corn plant response rating [13, 22]: 0 | Corn plant response rating [13, 23]: 0 | Corn plant response rating [13, 24]: 0 | Crabgrass plant response rating [14, 17]: 0 | Crabgrass plant response rating [14, 18]: 1 | Plant response rating, Crabgrass [14, 19]: 3 | Plant response rating, Crabgrass [14, 20]: 3 | Plant response rating, Crabgrass [14, 21]: 6 | Crabgrass plant response rating [14, 22]: 10 | Crabgrass plant response rating [14, 23]: 0 | Crabgrass plant response rating [14, 24]: 7 | Morningglory plant response rating [15, 17]: 4 | Morningglory plant response rating [15, 18]: 8 | Plant response rating, Morningglory [15, 19]: 0 | Plant response rating, Morningglory [15, 20]: 0 | Plant response rating, Morningglory [15, 21]: 0 | Morningglory plant response rating [15, 22]: 0 | Morningglory plant response rating [15, 23]: 7 | Morningglory plant response rating [15, 24]: 8 | Rape plant response rating [16, 17]: 0 | Rape plant response rating [16, 18]: 0 | Plant response rating, Rape [16, 19]: 0 | Plant response rating, Rape [16, 20]: 0 | Plant response rating, Rape [16, 21]: 0 | Rape plant response rating [16, 22]: 0 | Rape plant response rating [16, 23]: 0 | Rape plant response rating [16, 24]: 2

— patent US6737383B1, “Herbicidal oxadiazolidines” (priority 1999, dated 2004)
